Assay results from patent publication US20230390310A1, “PERSONALIZED, PRECISE, CONSISTENT BOTANICAL FORMULATIONS ON DEMAND” (ALTOPA, INC, priority 2022, published 2023).
“Also recorded” adds a separate entry of the source.

Legend:
[1] = Patient-reported outcomes, pain and inflammation (Relief); assay type: in vivo, patients; settings: pain / inflammatory conditions (pain and anxiety)
Source text: (§1) Relief includes Base Formulations used in connection with more than one patient suffering from pain and/or inflammatory diseases including neuropathic, and nociceptive pain caused by a range of injuries, arthritis, fibromyalgia, fibrosis, shingles, diabetes, and Lyme disease. Some patients suffering from pain were also suffering from COPD. […] For example, in the Table FIG. 1, Base Formulation TF8 has twice as much terpenes as TF7. […] If a patient was experience pain resulting from an inflammatory condition, such as COPD, then it was not necessary to include THC in the patient's formulations. However, if the patient was suffering from a type of pain such as nociceptive or neuropathic, the use of THC was beneficial. Increasing alpha pinene will be beneficial for patients with COPD.
In addition, even when a patient was reporting good symptom relief, patient dosages were titrated up, including both dosing frequency and dose size, to determine whether better relief could be achieved. […] Thereafter, the HCP would revert the formulation back to the previous dosage and constituent amounts. Treatment then continues forward at that reverted level.
(§2) FIG. 10 is a Pain Management Table, FIG. 11 is an Insomnia Table, FIG. 12 is a Cancer Treatment Support Table, FIG. 13 is an Anxiety, Depression, PTSD Management Table, FIG. 14 is a Chronic Obstructive Pulmonary Disease (COPD) Table, and FIG. 15 is a Irritable Bowel Syndrome Table. These are symptom-specific tables which summarize the pharmaceutical compositions where two or more patients, grouped by specific composition have reported moderate to substantial symptom improvement with the use of the specified composition for periods of use ranging from 1 to 24 months. With respect to the Tables in FIGS. 10-15, the amounts specified in the tables represent the mass in milligrams (mg) per 1.0 milliliter (mL). Dosing protocols vary and may involve a dosing volume ranging from 0.1 ml to 1 ml with a frequency of once, twice or three times a day (QD, BID, or TID, respectively), and in some cases used on an as-needed basis.

[2] = Patient-reported outcomes, gastrointestinal disorders (Wisdom); assay type: in vivo, patients; settings: 15-100 mg/mL added
Source text: Studies have shown that the Wisdom BASE formulations relieve symptoms associated with gastrointestinal disorders, such as IBS and others.
as §2

[3] = Patient-reported side effects and tolerability
[4] = Patient-reported outcomes, insomnia and sleep (Rest); assay type: in vivo, patients; settings: THC small amount (0.25-10 mg/ml); terpenes increased by 0.25-3.5 mg/mL
Source text: as §2

[5] = Patient-reported outcomes, COPD; assay type: in vivo; settings: patients suffering from COPD
Source text: as §1
(§3) FIG. 10 is a Pain Management Table, FIG. 11 is an Insomnia Table, FIG. 12 is a Cancer Treatment Support Table, FIG. 13 is an Anxiety, Depression, PTSD Management Table, FIG. 14 is a Chronic Obstructive Pulmonary Disease (COPD) Table, and FIG. 15 is a Irritable Bowel Syndrome Table. These are symptom-specific tables which summarize the pharmaceutical compositions where two or more patients, grouped by specific composition have reported moderate to substantial symptom improvement with the use of the specified composition for periods of use ranging from 1 to 24 months. […]

[6] = Patient-reported outcomes, anxiety, depression, PTSD (Calm / Serenity); assay type: in vivo, patients; settings: people with anxiety
Source text: FIGS. 2 and 3 show Oblend® Treatment Family (Oblend Tx) Calm formulations and Oblend Tx Serenity formulations. These tables include base formulations (BASE) for subjects suffering from anxiety, depression, and PTSD. The BASE Formulation is selected from Calm or Serenity Tables based on the subject's symptoms.
Some patients respond well to LIM and LOL while others respond better to more sedative terpenes like MYR and TPN. In most cases, patients with anxiety respond well to Calm Tx formulations. […] If a patient suffering from anxiety initially began treatment with the Calm Base and experienced some symptom relief, then, this patient continued taking Calm formulations from Calm or a personalized formulation with a similar terpene profile as Calm.
as §3

CCCCCc1cc(O)c2c(c1)OC(C)(CCC=C(C)C)C=C2 (stereo not shown) [CBC, Cannabichromene]
patient outcomes on adding the ingredient to the formulation [1]: in some cases, patients reported a reduction in symptoms; also recorded: favorable patient outcomes improved dramatically

C=C(C)[C@@H]1CCC(C)=C[C@H]1c1c(O)cc(CCCCC)cc1O [CBD, Cannabidiol]
gastrointestinal symptom relief on adding the ingredient [2]: improved symptom relief

CCCCCc1cc(O)c(C/C=C(\C)CCC=C(C)C)c(O)c1 [CBG, Cannabigerol]
patient outcomes on adding the ingredient to the formulation [1]: some patients reported a reduction in symptoms; also recorded: favorable patient outcomes increased

CCCCCc1cc(O)c2c(c1)OC(C)(C)c1ccc(C)cc1-2 [CBN, Cannabinol]
patient outcomes on adding the ingredient to the formulation [1]: favorable patient outcomes increased

CCCCCc1cc(O)c2c(c1)OC(C)(C)C1CC=C(C)CC21 (stereo not shown) [Delta-8, delta-8-tetrahydrocannabinol]
side-effects compared with Delta-9 THC ([3]; according to most patients): fewer side-effects

CCCCCc1cc(O)c2c(c1)OC(C)(C)[C@@H]1CCC(C)=C[C@@H]21 [THC, Tetrahydrocannabinol, reference compound]
sleep on adding or increasing the ingredient [4]: patients were able to fall asleep; also recorded: improves sleep | patient outcomes on adding the ingredient to the formulation [1]: improved pain relief

CC1=CCC2CC1C2(C)C (stereo not drawn) [alpha-pinene, Alpha Pinene]
COPD outcomes on increasing the terpene [5]: significantly improved outcomes

C=C1CC/C=C(\C)CC[C@@H]2[C@@H]1CC2(C)C [beta Caryophyllene, Beta Caryophyllene]
COPD outcomes on increasing the terpene [5]: significantly improved outcomes | patient outcomes on adding the ingredient to the formulation [1]: significant improvement in symptom relief; also recorded: increased patient outcomes

C=C(C)[C@H]1CC=C(C)CC1 [limonene, Limonene]
anxiety response to the terpene [6]: make some people more anxious

C=CC(C)(O)CCC=C(C)C (stereo not shown) [linalool, Linalool]
sleep on adding or increasing the ingredient [4]: improves sleep

C=CC(=C)CCC=C(C)C [myrcene, Myrcene]
sleep on adding or increasing the ingredient [4]: increased the duration and quality of sleep; also recorded: improves sleep

C=CC(C)(O)CCC=C(C)CCC=C(C)C (stereo not shown) [nerolidol, Nerolidol]
sleep on adding or increasing the ingredient [4]: increased the duration and quality of sleep | allergy ([3]; ingredient of most formulations): some patients are allergic

CC1=CCC(=C(C)C)CC1 [terpinolene, Terpinolene]
sleep on adding or increasing the ingredient [4]: increased the duration and quality of sleep; also recorded: improves sleep
